According to patent US9855280B2, “Nanoparticles containing azolium and N-heterocyclic carbene compounds and use thereof” (National Dong Hwa University, priority 2015, dated 2018):
Like-named read-outs stand apart in the source and are kept apart here.

Legend:
[1] = test system: Hs578T human breast cancer cell line; experiment: Cell proliferation (MTT) cytotoxicity, Hs578T; format: cell-based; conditions: 72 h
From the text: (§1) Nine human cancerous cell lines, included human acute monocytic leukemia cell line (THP-1), human chronic myelogenous leukemia cell (K562), human acute lymphoblastic leukemia cell (CEM), human liver cancer cell line (HepG2), human colon cancer cell line (HT-29), human lung cancer cell line (H460), human breast cancer cell line (Hs578), human tongue squamous carcinoma (SAS), and human neuroblastoma cell line (SH—SY5Y) were purchased from the Bioresource Collection and Research Center (BCRC, Taiwan). A normal splenocyte is a primary cell acquired from the mouse spleen as a normal tissue cells to compare with nine cancer cell lines. They were cultured in either RPMI or DMEM (Gibco, CA, U.S.A) based media containing 2 mM L-glutamine, 1 mM sodium pyruvate, 50U/ml penicillin/50 μg/ml streptomycin (Gibco, CA, USA). and 10% fetal bovine serum ([…], HyClone Laboratories Inc., Logan, Utah, USA) at 37° C. with 5% CO2 supplied.
(§2) Cancer cells were seeded into 96-well plate at a starting density 8-10×10^3 cells/well. After overnight culture, [C16,TEGQ-Im]Cl, [C16,TEGQ-Imy)2Au]Cl, and AuNPs-B were added at various concentrations and duration times. Cisplantin of same concentration was added in the same plate as positive control (Sigma-Aldrich, St. Louis, Mo., USA). The proliferation of the cells was measured at 72 h by the MTT method. The cell viability was examined using Ethidium bromide/Acride orange vital stain to exclude the dead cells and normalized the number of living cells to the total counted cells. […] All experiments were performed in triplicate to calculate the experimental averages and standard deviations. […]

[2] = test system: SAS human tongue squamous carcinoma; experiment: Cell proliferation (MTT) cytotoxicity, SAS; format: cell-based; conditions: 72 h
From the text: as §1, §2

[3] = test system: splenocyte, primary cell acquired from the mouse spleen; experiment: Cell proliferation (MTT) cytotoxicity, normal splenocyte; format: cell-based; conditions: 72 h
From the text: as §1, §2

[4] = test system: HT-29 human colon cancer cell line; experiment: Cell proliferation (MTT) cytotoxicity, HT-29; format: cell-based; conditions: HT-29, 72 h
From the text: as §1, §2

[5] = test system: HepG2 human liver cancer cell line; experiment: Cell proliferation (MTT) cytotoxicity, HepG2; format: cell-based; conditions: HepG2, 72 h
From the text: as §1, §2

[6] = test system: SH-SY5Y human neuroblastoma cell line; experiment: Cell proliferation (MTT) cytotoxicity, SH-SY5Y; format: cell-based; conditions: 72 h
From the text: as §1, §2

[7] = test system: K562 human chronic myelogenous leukemia cell; experiment: Cell proliferation (MTT) cytotoxicity, K562; format: cell-based; conditions: K562, 72 h
From the text: as §1, §2

[8] = Solubility in water; format: physicochemical
[9] = test system: nine cancer cell lines; experiment: In vitro cytotoxicity across the panel of cancer cell lines; format: cell-based, human
From the text: as §1
(§3) Cancer cells were seeded into 96-well plate at a starting density 8-10×10^3 cells/well. After overnight culture, [C16,TEGQ-Im]Cl, [C16,TEGQ-Imy)2Au]Cl, and AuNPs-B were added at various concentrations and duration times. […] The proliferation of the cells was measured at 72 h by the MTT method. The cell viability was examined using Ethidium bromide/Acride orange vital stain to exclude the dead cells and normalized the number of living cells to the total counted cells. […]

[10] = test system: THP-1 human acute monocytic leukemia cell line; experiment: Cell proliferation (MTT) cytotoxicity, THP-1; format: cell-based; conditions: THP-1, 72 h
From the text: as §1, §3

[11] = test system: CEM human acute lymphoblastic leukemia cell; experiment: Cell proliferation (MTT) cytotoxicity, CEM; format: cell-based; conditions: 72 h
From the text: as §1, §3

[12] = test system: H460 human lung cancer cell line; experiment: Cell proliferation (MTT) cytotoxicity, H460; format: cell-based
From the text: as §1, §2

| Compound | IC50 [1] | IC50 [2] | IC50 [3] | IC50 [4] | IC50 [5] | IC50 [6] | IC50 [7] | IC50 ([12]; H460, 72 h) | other results |
| --- | --- | --- | --- | --- | --- | --- | --- | --- | --- |
| CCCCCCCCCCCCCCCCn1cc[n+](CCOCCOCCOc2cccc3cccnc23)[c]1[Au-][c]1n(CCOCCOCCOc2cccc3cccnc23)cc[n+]1CCCCCCCCCCCCCCCC.[Cl-] [[(C16,TEGQ-Imy)2Au]Cl] | 0.66 ± 0.14 µg/mL | 0.74 ± 0.03 µg/mL | 4.06 ± 1.66 µg/mL | 29.41 ± 16.89 µg/mL | 7.47 ± 1.53 µg/mL | 1.14 ± 0.31 µg/mL | 2.71 ± 0.26 µg/mL | 6.64 ± 1.22 µg/mL | Solubility in water [8]: relatively poor solubility in water; IC50, range over cell lines ([9]; all of the eight cancer cell lines): 2.7 to 29.4 µg/mL; IC50 [10]: 3.37 ± 0.74 µg/mL; IC50 [11]: 4.11 ± 0.78 µg/mL |
| N.N.[Cl][Pt][Cl] [Cisplatin, reference compound] | 1.73 µg/mL | 2.21 µg/mL | 0.71 ± 0.05 µg/mL | 2.45 µg/mL | 1.67 ± 0.23 µg/mL | 0.60 µg/mL | 0.61 µg/mL | 1.23 ± 0.29 µg/mL | – |
| CCCCCCCCCCCCCCCCn1cc[n+](CCOCCOCCOc2cccc3cccnc23)c1.[Cl-] [[C16,TEGQ-Im]Cl, 3-hexadecyl-1-(2-(2-(2-(quinolin-8-yloxy)ethoxy)ethoxy)ethyl)-imidazolium chloride] | – | – | – | – | – | – | – | – | IC50 ([1]; Homo sapiens, Hs-578T, read-out: IC50): 0.39 ± 0.05 µg/mL; IC50 ([2]; Homo sapiens, read-out: IC50): 0.89 ± 0.56 µg/mL; IC50 ([3]; read-out: IC50): 3.18 ± 0.76 µg/mL; IC50 ([4]; Homo sapiens, read-out: IC50): 0.88 ± 0.11 µg/mL; IC50 ([5]; Homo sapiens, read-out: IC50): 1.69 ± 0.14 µg/mL; IC50 ([6]; Homo sapiens, read-out: IC50): 0.34 µg/mL; IC50 ([7]; Homo sapiens, read-out: IC50): 0.22 ± 0.03 µg/mL; IC50 ([9]; Homo sapiens, six cancer cell lines: THP-1, K562, HT-29, Hs578T, SH-SY5Y, SAS, read-out: IC50 values, range over cell lines): 0.22 to 0.89 µg/mL; IC50 ([10]; Homo sapiens, read-out: IC50): 0.37 µg/mL; IC50 ([11]; Homo sapiens, read-out: IC50): 0.67 ± 0.16 µg/mL; IC50 ([12]; Homo sapiens, NCI-H460, 72 h, read-out: IC50): 1.43 ± 0.3 µg/mL |
